Assays:
E. coli pAHL-GMCSF = assay: AHL-induced porin formation and release of dsRedExpressII from E. coli pAHL-GMCSF; assay type: cell-based, Escherichia coli; conditions: about
Description: Protein secretion analysis. The target proteins DsRedExpress2 and GMCSF were analyzed. The supernatants of sample aliquots were recovered after centrifugation (6000 g, 2 min) to separate bacteria and subdivided fluorescence analysis (stored chilled) or immunoassaying (stored frozen). The relative fluorescence intensity of samples was measured using a BioTek Synergy platereader to determine DsRedExpress2 levels; additional quantification to correlate fluorescence to protein concentration was performed using a Bioanalyzer 2100 (Agilent Technologies, Santa Clara, Calif.). The His-tagged GMCSF peptide was quantified using a His Tag ELISA Detection Kit (GenScript) according to the provided protocol and 5-10 fold dilutions of frozen samples.

Structure (SMILES)	inducer concentration in solution (E. coli pAHL-GMCSF)	induction threshold required to achieve saturated protein expression (OxyR / PoxyS promoter) [µM]	peroxide tolerated with negligible effect on cell viability (E. coli)	benign induction range (E. coli; in agreement with previous reports) [µM]
CCCCCCCCCC(=O)CC(=O)N[C@H]1CCOC1=O [AHL, N-3-oxo-dodecanoyl-L-Homoserine lactone]	100-500 nM of AHL			
OO [peroxide, hydrogen peroxide]		25	up to 100 μM	0 to 100
